Experimental data: patent US10112907B2, “Substituted indazoles for treating tendon and/or ligament injuries” (NOVARTIS AG, priority 2016, dated 2018)

Assays:
[1] = test system: Scleraxis (Scx) gene transcriptional activation in TT-D6 Scx-luciferase (ScxL) cell line; assay: SCX-LUC in vitro assay (Scx-luciferase reporter); format: cell-based; conditions: Mus musculus, 96 h; Table 3; four days; read-out: Scx-Luc (EC50 μM)
[2] = test system: Scleraxis (Scx) gene expression in rat tail tendon fascicles; assay: Ex vivo assay, Scx mRNA in tendon fascicles (qPCR); format: cell-based, Sprague Dawley rat; conditions: 96 h, Table 3, four days, read-out: Ex vivo Scx (EC50 μM)
[3] = test system: Tenomodulin (Tnmd) gene expression in rat tail tendon fascicles; assay: Ex vivo assay, Tnmd mRNA in tendon fascicles (qPCR); format: cell-based, Sprague Dawley rat; conditions: 96 h, Table 3, four days, read-out: Ex vivo Tnmd (EC50 μM)
[4] = test system: collagen type I (Col1a2) gene expression in rat tail tendon fascicles; assay: Ex vivo assay, Col1a2 mRNA in tendon fascicles (qPCR); format: cell-based, Sprague Dawley rat; conditions: 96 h, Table 3, four days, read-out: Ex vivo Col1a2 (EC50 μM)

Row | EC50 [1] | EC50 [2] | EC50 [3] | EC50 [4] | SMILES
1 | 0.511 µM | 1.64 µM | 0.513 µM | 1.55 µM | Cc1cc(S(=O)(=O)N2CC[C@@H](O)C2)ccc1-c1ccc2[nH]nc(N)c2c1C [Example 4, (R)-1-((4-(3-amino-4-methyl-1H-indazol-5-yl)-3-methylphenyl)sulfonyl)pyrrolidin-3-ol]
2 | 0.275 µM | 3.62 µM | 1.6 µM | 2.63 µM | Cc1cc(S(=O)(=O)N2CC[C@H](O)C2)ccc1-c1ccc2[nH]nc(N)c2c1C [Example 5, (S)-1-((4-(3-amino-4-methyl-1H-indazol-5-yl)-3-methylphenyl)sulfonyl)pyrrolidin-3-ol]
3 | 2.02 µM | 5.35 µM | 0.463 µM | 3.31 µM | Cc1cc(S(=O)(=O)N2CC[C@@H](O)C2)ccc1-c1ccc2[nH]nc(N)c2c1Cl [Example 7, (R)-1-((4-(3-amino-4-chloro-1H-indazol-5-yl)-3-methylphenyl)sulfonyl)pyrrolidin-3-ol]
4 | 2.21 µM | 1.73 µM | 10 µM | 10 µM | Cc1cc(S(=O)(=O)N[C@H]2C[C@@H](O)C2)ccc1-c1ccc2[nH]nc(N)c2c1C [Example 12, 4-(3-amino-4-methyl-1H-indazol-5-yl)-N-((1s,3s)-3-hydroxycyclobutyl)-3-methylbenzenesulfonamide]
5 | 3.92 µM | 7.28 µM | 6.97 µM | 2.64 µM | Cc1cc(S(=O)(=O)N2CCC(O)CC2)ccc1-c1ccc2[nH]nc(N)c2c1C [Example 14, 1-((4-(3-amino-4-methyl-1H-indazol-5-yl)-3-methylphenyl)sulfonyl)piperidin-4-ol]
6 | 0.638 µM | 1.75 µM | 0.447 µM | 0.557 µM | Cc1cc(S(=O)(=O)N[C@@H]2CCCC[C@H]2O)ccc1-c1ccc2[nH]nc(N)c2c1C [Example 16, 4-(3-amino-4-methyl-1H-indazol-5-yl)-N-((1R,2R)-2-hydroxycyclohexyl)-3-methylbenzenesulfonamide]
7 | 0.468 µM | 2.52 µM | 1.06 µM | 2.53 µM | Cc1cc(S(=O)(=O)N[C@@H]2CCC[C@@H]2O)ccc1-c1ccc2[nH]nc(N)c2c1C [Example 18, 4-(3-amino-4-methyl-1H-indazol-5-yl)-N-((1R,2S)-2-hydroxycyclopentyl)-3-methylbenzenesulfonamide]
8 | 0.431 µM | 10 µM | 10 µM | 10 µM | Cc1cc(S(=O)(=O)N2CCC[C@H]2CO)ccc1-c1ccc2[nH]nc(N)c2c1C [Example 19, (S)-(1-((4-(3-amino-4-methyl-1H-indazol-5-yl)-3-methylphenyl)sulfonyl)pyrrolidin-2-yl)methanol]
9 | 1.26 µM | 3.7 µM | 6.64 µM | 5.32 µM | Cc1cc(S(=O)(=O)NC2CCOCC2)ccc1-c1ccc2[nH]nc(N)c2c1C [Example 21, 4-(3-amino-4-methyl-1H-indazol-5-yl)-3-methyl-N-(tetrahydro-2H-pyran-4-yl)benzenesulfonamide]
10 | 0.126 µM | 5.54 µM | 3.77 µM | 4.18 µM | Cc1cc(S(=O)(=O)N[C@H]2C[C@](O)(C(F)(F)F)C2)ccc1-c1ccc2[nH]nc(N)c2c1C [Example 31, 4-(3-amino-4-methyl-1H-indazol-5-yl)-N-((1s,3s)-3-hydroxy-3-(trifluoromethyl)cyclobutyl)-3-methylbenzenesulfonamide]
11 | 0.614 µM | 1.54 µM | 0.078 µM | 5.92 µM | Cc1c(-c2ccc(S(=O)(=O)N[C@H]3C[C@@H](O)C3)cc2Cl)ccc2[nH]nc(N)c12 [Example 34, 4-(3-amino-4-methyl-1H-indazol-5-yl)-3-chloro-N-((1s,3s)-3-hydroxycyclobutyl)benzenesulfonamide]
12 | 0.227 µM | 0.996 µM | 1.69 µM | 1.82 µM | Cc1cc(S(=O)(=O)N[C@H]2C[C@](O)(C(F)(F)F)C2)ccc1-c1ccc2[nH]nc(N)c2c1Cl [Example 37, 4-(3-amino-4-chloro-1H-indazol-5-yl)-N-((1s,3s)-3-hydroxy-3-(trifluoromethyl)cyclobutyl)-3-methylbenzenesulfonamide]
13 | 0.988 µM | 2.69 µM | 2.92 µM | 1.82 µM | Cc1cc(S(=O)(=O)N[C@H]2C[C@@](C)(O)C2)ccc1-c1ccc2[nH]nc(N)c2c1C [Example 40, 4-(3-amino-4-methyl-1H-indazol-5-yl)-N-((1s,3s)-3-hydroxy-3-methylcyclobutyl)-3-methylbenzenesulfonamide]
14 | 0.696 µM | 3.37 µM | 4.87 µM | 3.45 µM | Cc1cc(S(=O)(=O)NC2CCC(F)(F)CC2)ccc1-c1ccc2[nH]nc(N)c2c1C [Example 43, 4-(3-amino-4-methyl-1H-indazol-5-yl)-N-(4,4-difluorocyclohexyl)-3-methylbenzenesulfonamide]
15 | 1.25 µM | 4.44 µM | 2.85 µM | 2.41 µM | Cc1cc(S(=O)(=O)N[C@@H]2COCC[C@H]2O)ccc1-c1ccc2[nH]nc(N)c2c1C [Example 45, 4-(3-amino-4-methyl-1H-indazol-5-yl)-N-((3R,4R)-4-hydroxytetrahydro-2H-pyran-3-yl)-3-methylbenzenesulfonamide]
16 | 0.852 µM | 3.04 µM | 2.78 µM | 2.23 µM | CCC1(O)CC(NS(=O)(=O)c2ccc(-c3ccc4[nH]nc(N)c4c3C)c(C)c2)C1 (centres unmarked) [Example 49, 4-(3-amino-4-methyl-1H-indazol-5-yl)-N-(3-ethyl-3-hydroxycyclobutyl)-3-methylbenzenesulfonamide]
17 | 1.29 µM | 3.26 µM | 7.38 µM | 2.01 µM | Cc1cc(S(=O)(=O)NC2CC(O)(C3CC3)C2)ccc1-c1ccc2[nH]nc(N)c2c1C (centres unmarked) [Example 50, 4-(3-amino-4-methyl-1H-indazol-5-yl)-N-(3-cyclopropyl-3-hydroxycyclobutyl)-3-methylbenzenesulfonamide]
18 | 1.58 µM | 6.98 µM | 6.8 µM | 6.39 µM | Cc1cc(S(=O)(=O)NC2CC(O)(Cc3ccccc3)C2)ccc1-c1ccc2[nH]nc(N)c2c1C (centres unmarked) [Example 51, 4-(3-amino-4-methyl-1H-indazol-5-yl)-N-(3-benzyl-3-hydroxycyclobutyl)-3-methylbenzenesulfonamide]
19 | 0.242 µM | 3.8 µM | 0.706 µM | 4.42 µM | Cc1cc(S(=O)(=O)N2CC(F)(F)C[C@H]2CO)ccc1-c1ccc2[nH]nc(N)c2c1Cl [Example 54, (S)-(1-((4-(3-amino-4-chloro-1H-indazol-5-yl)-3-methylphenyl)sulfonyl)-4,4-difluoropyrrolidin-2-yl)methanol]
20 | 0.228 µM | 3.14 µM | 5.5 µM | 3.5 µM | Cc1c(-c2ccc(S(=O)(=O)N[C@H]3C[C@](O)(C(F)(F)F)C3)cc2Cl)ccc2[nH]nc(N)c12 [Example 55, 4-(3-amino-4-methyl-1H-indazol-5-yl)-3-chloro-N-((1s,3s)-3-hydroxy-3-(trifluoromethyl)cyclobutyl)benzenesulfonamide]
